From PubChem BioAssay (NCI)
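Five compound concentrations were applied to cells in 96-well plates for 48 hours; endpoints were derived by simple linear interpolation of the resulting dose-response curve. The concentration for full growth arrest is given as TGI.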

Key:
Test in all cases: growth of human tumour cells (NCI), 48 h
SN12C renal = test system: SN12C renal
786-0 renal = test system: 786-0 renal
U251 CNS = test system: U251 CNS
SF-295 CNS = test system: SF-295 CNS
HCT-15 colon = test system: HCT-15 colon
SK-MEL-2 melanoma = test system: SK-MEL-2 melanoma
M14 melanoma = test system: M14 melanoma
A498 renal = test system: A498 renal
OVCAR-4 ovarian = test system: OVCAR-4 ovarian
OVCAR-5 ovarian = test system: OVCAR-5 ovarian
LXFL 529 NSCLC = test system: LXFL 529 NSCLC
HT29 colon = test system: HT29 colon
M19-MEL melanoma = test system: M19-MEL melanoma
NCI-H23 lung = test system: NCI-H23 lung
NCI-H226 lung = test system: NCI-H226 lung
UACC-257 melanoma = test system: UACC-257 melanoma
IGROV1 ovarian = test system: IGROV1 ovarian
HOP-62 NSCLC = test system: HOP-62 NSCLC
OVCAR-8 ovarian = test system: OVCAR-8 ovarian
CCRF-CEM leukemia = test system: CCRF-CEM leukemia
OVCAR-3 ovarian = test system: OVCAR-3 ovarian
SNB-19 CNS = test system: SNB-19 CNS
NCI-H460 lung = test system: NCI-H460 lung
HCT-116 colon = test system: HCT-116 colon
MALME-3M melanoma = test system: MALME-3M melanoma
K-562 leukemia = test system: K-562 leukemia
UACC-62 melanoma = test system: UACC-62 melanoma
KM20L2 colon = test system: KM20L2 colon
CAKI-1 renal = test system: CAKI-1 renal
UO-31 renal = test system: UO-31 renal
HOP-18 NSCLC = test system: HOP-18 NSCLC
SK-MEL-5 melanoma = test system: SK-MEL-5 melanoma
SF-539 CNS = test system: SF-539 CNS
NCI-H522 lung = test system: NCI-H522 lung
TK-10 renal = test system: TK-10 renal
ACHN renal = test system: ACHN renal
DMS 273 small cell lung = test system: DMS 273 small cell lung
DLD-1 colon = test system: DLD-1 colon
SK-MEL-28 melanoma = test system: SK-MEL-28 melanoma
HCC-2998 colon = test system: HCC-2998 colon
LOX IMVI melanoma = test system: LOX IMVI melanoma
HL-60(TB) leukemia = test system: HL-60(TB) leukemia
SK-OV-3 ovarian = test system: SK-OV-3 ovarian
SW-620 colon = test system: SW-620 colon
MOLT-4 leukemia = test system: MOLT-4 leukemia
DMS 114 small cell lung = test system: DMS 114 small cell lung
HOP-92 NSCLC = test system: HOP-92 NSCLC
SNB-75 CNS = test system: SNB-75 CNS
COLO 205 colon = test system: COLO 205 colon
KM12 colon = test system: KM12 colon
EKVX NSCLC = test system: EKVX NSCLC
A549 NSCLC = test system: A549 NSCLC
SR leukemia = test system: SR leukemia
RXF 393 renal = test system: RXF 393 renal
SF-268 CNS = test system: SF-268 CNS
RPMI-8226 leukemia = test system: RPMI-8226 leukemia
SNB-78 CNS = test system: SNB-78 CNS

NC(N)=N/N=C/c1oc(-c2ccc(S(=O)(=O)O)o2)c(-c2ccc(S(=O)(=O)O)o2)c1[N+](=O)[O-]
TGI (SN12C renal): > 100 µM | TGI (786-0 renal): > 100 µM | TGI (U251 CNS): > 100 µM | TGI (SF-295 CNS): > 100 µM | TGI (HCT-15 colon): > 100 µM | TGI (SK-MEL-2 melanoma): > 100 µM | TGI (M14 melanoma): > 100 µM | TGI (A498 renal): > 100 µM | TGI (OVCAR-4 ovarian): > 100 µM | TGI (OVCAR-5 ovarian): > 100 µM | TGI (LXFL 529 NSCLC): > 100 µM | TGI (HT29 colon): > 100 µM | TGI (M19-MEL melanoma): > 100 µM | TGI (NCI-H23 lung): > 100 µM | TGI (NCI-H226 lung): > 100 µM | TGI (UACC-257 melanoma): > 100 µM | TGI (IGROV1 ovarian): > 100 µM | TGI (HOP-62 NSCLC): > 100 µM | TGI (OVCAR-8 ovarian): > 100 µM | TGI (CCRF-CEM leukemia): > 100 µM | TGI (OVCAR-3 ovarian): > 100 µM | TGI (SNB-19 CNS): > 100 µM | TGI (NCI-H460 lung): > 100 µM | TGI (HCT-116 colon): > 100 µM | TGI (MALME-3M melanoma): > 100 µM | TGI (K-562 leukemia): > 100 µM | TGI (UACC-62 melanoma): > 100 µM | TGI (KM20L2 colon): > 100 µM | TGI (CAKI-1 renal): > 100 µM | TGI (UO-31 renal): > 100 µM | TGI (HOP-18 NSCLC): > 100 µM | TGI (SK-MEL-5 melanoma): > 100 µM | TGI (SF-539 CNS): > 100 µM | TGI (NCI-H522 lung): > 100 µM | TGI (TK-10 renal): > 100 µM | TGI (ACHN renal): > 100 µM | TGI (DMS 273 small cell lung): > 100 µM | TGI (DLD-1 colon): > 100 µM | TGI (SK-MEL-28 melanoma): > 100 µM | TGI (HCC-2998 colon): > 100 µM | TGI (LOX IMVI melanoma): > 100 µM | TGI (HL-60(TB) leukemia): > 100 µM | TGI (SK-OV-3 ovarian): > 100 µM | TGI (SW-620 colon): > 100 µM | TGI (MOLT-4 leukemia): > 100 µM | TGI (DMS 114 small cell lung): > 100 µM | TGI (HOP-92 NSCLC): > 100 µM | TGI (SNB-75 CNS): > 100 µM | TGI (COLO 205 colon): > 100 µM | TGI (KM12 colon): > 100 µM | TGI (EKVX NSCLC): > 100 µM | TGI (A549 NSCLC): > 100 µM | TGI (SR leukemia): > 100 µM | TGI (RXF 393 renal): > 100 µM | TGI (SF-268 CNS): > 100 µM

O=C(c1ccccc1)C(c1ccccc1)C1(O)C(=O)Nc2c(Cl)ccc(Cl)c21 (centres undefined)
TGI (SN12C renal): 31.8 µM | TGI (786-0 renal): 39.9 µM | TGI (U251 CNS): 78.8 µM | TGI (SF-295 CNS): 31.1 µM | TGI (HCT-15 colon): 36.2 µM | TGI (SK-MEL-2 melanoma): 39.5 µM | TGI (M14 melanoma): 30.7 µM | TGI (A498 renal): 64.6 µM | TGI (OVCAR-4 ovarian): 13.4 µM | TGI (OVCAR-5 ovarian): 35.5 µM | TGI (LXFL 529 NSCLC): 31.2 µM | TGI (HT29 colon): 47.1 µM | TGI (NCI-H23 lung): 35.6 µM | TGI (UACC-257 melanoma): 29.9 µM | TGI (IGROV1 ovarian): 42.7 µM | TGI (HOP-62 NSCLC): 49.8 µM | TGI (OVCAR-8 ovarian): 44.7 µM | TGI (CCRF-CEM leukemia): 46.6 µM | TGI (OVCAR-3 ovarian): 32.4 µM | TGI (SNB-19 CNS): > 85.6 µM | TGI (NCI-H460 lung): 56.8 µM | TGI (HCT-116 colon): 31 µM | TGI (MALME-3M melanoma): 31.3 µM | TGI (RPMI-8226 leukemia): 40.8 µM | TGI (K-562 leukemia): 35 µM | TGI (UACC-62 melanoma): 33.8 µM | TGI (KM20L2 colon): > 100 µM | TGI (CAKI-1 renal): 39.8 µM | TGI (UO-31 renal): 39.1 µM | TGI (HOP-18 NSCLC): 49.3 µM | TGI (SK-MEL-5 melanoma): 34.1 µM | TGI (SF-539 CNS): 44.5 µM | TGI (NCI-H522 lung): 34.9 µM | TGI (TK-10 renal): > 67.3 µM | TGI (ACHN renal): 31.7 µM | TGI (SNB-78 CNS): 64 µM | TGI (DMS 273 small cell lung): 42.9 µM | TGI (DLD-1 colon): 35 µM | TGI (SK-MEL-28 melanoma): 34.6 µM | TGI (HCC-2998 colon): 77.7 µM | TGI (LOX IMVI melanoma): 28 µM | TGI (HL-60(TB) leukemia): 38.5 µM | TGI (SK-OV-3 ovarian): > 60.8 µM | TGI (SW-620 colon): 37.9 µM | TGI (MOLT-4 leukemia): 49 µM | TGI (DMS 114 small cell lung): 37.2 µM | TGI (HOP-92 NSCLC): 35.4 µM | TGI (SNB-75 CNS): 39.2 µM | TGI (COLO 205 colon): 38.5 µM | TGI (KM12 colon): 50.5 µM | TGI (EKVX NSCLC): 32.6 µM | TGI (A549 NSCLC): > 69.1 µM | TGI (RXF 393 renal): 33.8 µM | TGI (SF-268 CNS): 54 µM
